Common to all, as to assay type: in vivo
The test system of assay [1] is S. frugiperda field strain. Kind of assay: Example 5C ratio study, mortality and Colby synergy, field strain (protocol H). As for the experimental part:
(§1) Ratios of bifenthrin to chlorantraniliprole were evaluated on various crops and target pests as indicated in the protocol disclosed Table 5A below where “Lab.” Refers to laboratory, “No. of Treat.” refers to number of treatments, and Total refers to the total number of insects tested. In each evaluation, foliar application was done, the insecticide action was contact/ingestion and 32 insects were evaluated in each treatment.
(§2) The treatment schedule shown in Table 5B was used where “dose” refers to application rate, “ratio” refers to the ratio of bifenthrin to chlorantraniliprole on an a.i. basis.
(§3) Treatments were applied inside a sprayer chamber simulating a volume of 200 l/ha over soybean plants. After a drying period, treated leaves were removed from the plants and placed inside 16 well trays containing agar solution (2%) covered with filter paper. Two 16 well trays were prepared for each treatment (32 larvae/treatment). One 3rd instar larva from laboratory strains was placed in each well over the treated leaf. Trays were kept under controlled conditions of 25° C., photoperiod of 14:10 hours, and 60% RH. Morality was evaluated after 96 hours. Mortality is defined as dead and moribund larvae.
(§4) Synergy or antagonism was determined using the Colby Equation where: E=X+(100−X)(Y)/100)=X+Y−X*Y/100. X is the observed result for compound A at p grams a.e./ha. Y is the observed result for compound B at q grams a.e./ha. E is the expected result for a mixture of A and B at (p+q) g a.i./ha if there is no synergy or antagonism. If the observed value for the combination of A and B is greater than E (Obs>E) then synergy is indicated. If the observed value for the combination of A and B is less than E (Obs<E) then antagonism is indicated.
(§5) Morality on S. frugiperda was evaluated according to protocols G and H (refer to Table 5B), but where two S. frugiperda strains were tested: a laboratory strain (susceptible) and a field strain in F3 generation sampled in the 2018/2019 season in Sinop-MT region using treatment numbers 5.1 to 5.10 (refer to Table 5B). The results are reported in Tables 5E (Laboratory Strain) and 5F (Filed Strain).

Assay [2] relates to S. frugiperda laboratory strain (susceptible). Kind of assay: Example 5C ratio study, mortality and Colby synergy, laboratory strain (protocol G). To be noted: Spodoptera frugiperda, 96 hours. The method, then: as §1, §2, §3, §4, §5
The subject of the next assay is H. armigera 3rd instar. Kind of assay: Example 5B ratio study, treated leaf bioassay, mortality and Colby synergy (protocol B). As for the experimental part:
as §1, §2, §3, §4
Morality on H. armigera was evaluated according to protocol B (refer to Table 5B) using treatment numbers 5.1 to 5.13 (refer to Table 5B).

Assay [3] concerns D. melachantus 3rd instar nymphs. As to the kind of experiment: Example 5E ratio study, mortality and Colby synergy, nymphs (protocol E). To be noted: statement for D. melacanthus (nymphs and adults, protocols E and F). As for the experimental part:
as §1, §2, §4
(§6) Morality on E. heros was evaluated according to protocols C and D (refer to Table 5B). […] Mortality was evaluated after 72 hours. […]
Morality on D. melachantus was evaluated according to protocols E and F (refer to Table 5B). […]

The test system of assay [4] is E. heros 3rd instar nymphs. As to the kind of experiment: Example 5D ratio study on soybean plants, mortality and Colby synergy, nymphs (protocol C). To be noted: statement for E. heros (nymphs and adults, protocols C and D). As for the experimental part: as §1, §2, §4, §6
The test system of a further assay is C. includens 3rd instar. As to the kind of experiment: Example 5A ratio study, treated leaf bioassay, mortality and Colby synergy (protocol A). To be noted: at 7.5 g a.i./ha. As for the experimental part:
as §1, §2
Treatments were applied inside a sprayer chamber simulating a volume of 200 l/ha over soybean plants. After a drying period, treated leaves were removed from the plants and placed inside 16 well trays containing agar solution (2%) covered with filter paper. […] Morality was evaluated after 96 hours. […]
Synergy or antagonism was determined using the Colby Equation where: E=X+(100−X)(Y)/100)=X+Y−X*Y/100. […]
Morality on C. includens was evaluated according to protocol A (refer to Table 5B) using treatment numbers 5.1, 5.3, 5.5 to 5.8 and 5.10 to 5.13 (refer to Table 5B). The results are reported in Table 5C below where mortality is the mean mortality, the E value was calculated by the Colby equation, and the synergy value is determined by dividing the mean mortality (%) by the expected value (E).

In general, mortality refers to the share of the test organisms that died.

As to `Cc1c(COC(=O)[C@@H]2[C@H](/C=C(\Cl)C(F)(F)F)C2(C)C)cccc1-c1ccccc1` (racemic) [Bifenthrin, 2-methylbiphenyl-3-ylmethyl (Z)-(1RS)-cis-3-(2-chloro-3,3,3-trifluoroprop-1-enyl)-2,2-dimethyl cyclopropanecarboxylate], the mortality at 10 g/ha turned out to be 3.1% in assay [1] (Spodoptera frugiperda, Bifenthrin 10 g a.i./ha, 96 hours); 34.4% in assay [2] (Bifenthrin 10 g a.i./ha); 0% with H. armigera 3rd instar (Helicoverpa armigera, Bifenthrin 10 g a.i./ha, 96 hours). In addition, the mortality at 15 g/ha in assay [1] (Spodoptera frugiperda, Bifenthrin 15 g a.i./ha, 96 hours) stood at 3.1%; in assay [2] (Bifenthrin 15 g a.i./ha), 53.1%; in the assay on H. armigera 3rd instar (Helicoverpa armigera, Bifenthrin 15 g a.i./ha, 96 hours), 0%. Also, the mortality at 30 g/ha turned out to be 15.6% in assay [1] (Spodoptera frugiperda, Bifenthrin 30 g a.i./ha, 96 hours); 78.1% in assay [2] (Bifenthrin 30 g a.i./ha); 0% with H. armigera 3rd instar (Helicoverpa armigera, Bifenthrin 30 g a.i./ha, 96 hours). The mortality at 45 g/ha in assay [1] (Spodoptera frugiperda, Bifenthrin 45 g a.i./ha, 96 hours) came out at 43.8%; in assay [2] (Bifenthrin 45 g a.i./ha), 96.9%; in the assay on H. armigera 3rd instar (Helicoverpa armigera, Bifenthrin 45 g a.i./ha, 96 hours), 0%. In addition, the mortality at 60 g/ha in assay [1] (Spodoptera frugiperda, Bifenthrin 60 g a.i./ha, 96 hours) amounted to 43.8%; in assay [2] (Bifenthrin 60 g a.i./ha), 93.8%; in the assay with H. armigera 3rd instar (Helicoverpa armigera, Bifenthrin 60 g a.i./ha, 96 hours) it was 9.4%. Also, the “control of S. frugiperda” value in assay [1] (lower doses of bifenthrin, especially on the field strain) is “lower control”. Besides, the “control of H. armigera” value in the assay with H. armigera 3rd instar (even at a higher dose of 60 g a.i./ha, H. armigera resistance to pyrethroids) is “lower control”.
With `CNC(=O)c1cc(Cl)cc(C)c1NC(=O)c1cc(Br)nn1-c1ncccc1Cl` [Chlorantraniliprole, 5-bromo-N-[4-chloro-2-methyl-6-(methylcarbamoyl)phenyl]-2-(3-chloropyridin-2-yl)pyrazole-3-carboxamide], the “control of D. melacanthus” value in assay [3] was “did not control”. Further, the “control of E. heros” value in assay [4] is given as “did not control”. The “control of C. includens” value in the assay on C. includens 3rd instar was “most effective”. Further, the mortality at 5 g/ha came out at 40.6% in assay [1] (Spodoptera frugiperda, Chlorantraniliprole 5 g a.i./ha, 96 hours); 96.9% in assay [2] (Chlorantraniliprole 5 g a.i./ha); 84.4% in the assay on H. armigera 3rd instar (Helicoverpa armigera, Chlorantraniliprole 5 g a.i./ha, 96 hours). Besides, the mortality at 7.5 g/ha was 59.4% in assay [1] (Spodoptera frugiperda, Chlorantraniliprole 7.5 g a.i./ha, 96 hours); 100% in assay [2] (Chlorantraniliprole 7.5 g a.i./ha); 100% in the assay with H. armigera 3rd instar (Helicoverpa armigera, Chlorantraniliprole 7.5 g a.i./ha, 96 hours). For the same molecule, the H. armigera control entry in the assay with H. armigera 3rd instar (at 7.5 g a.i./ha) is reported as “most effective”.

Values taken from patent US11559057B2, “Insecticidal mixtures of bifenthrin and chlorantraniliprole” (FMC CORPORATION, priority 2019, dated 2023).
